# Measured values: US20260242404A1, “INTERGLYCAN ESTERS OF SUCROSE DICARBOXYLATE AND FRUCTOFURANURONATE, PROCESS FOR THE MANUFACTURE THEREOF, AND USE THEREOF AS A HYPOGLYCEMIC SLOW SUGAR” (priority 2022, published 2026)
# Columns and labels:
# [1] = system: blood sugar (glucose levels in the blood); assay: Glycemic index by oral induced hyperglycemia protocol (HGPVO / OGTT); format: in vivo; conditions: analyses repeated on two subjects, traditional commercial white sugar as control (FIG. 9)
# [2] = system: HbA1c; assay: HbA1c level calculated from average blood sugar level; format: in vivo; conditions: HbA1C 7% = 1.5 g/L average blood sugar, 1% HbA1C = 0.30 g/litre
# Source text: Its consumption is therefore intended for healthy subjects and also for type 2 diabetics. […] For the new natural white granulated or powdered slow sugar of this invention the following result is obtained: [formula] For traditional white commercial sugar and for comparison purposes we obtain the following result: [formula]
smiles,measurement,setting,value
"OC[C@H]1O[C@@](CO)(O[C@H]2O[C@H](CO)[C@@H](O)[C@H](O)[C@H]2O)[C@@H](O)[C@@H]1O [commercial white natural sugar, sucrose]","glycemic index, in words",[1],very high
same,increases HbA1c level by,[2],9.2%
